According to paper PMC12263422, “Cryo-EM structure of the human THIK-1 K2P K^+ channel reveals a lower Y gate regulated by lipids and anesthetics” (Nature Structural & Molecular Biology, 2025):
“And” between values parts separate entries of the source, which are not always exact repeats. Equal values may be shown once. Read-outs that look alike come from different tables or passages of the source.

How the values were obtained:
THIK-2*-Y292A = molecular target: T1, THIK-2*-Y292A (Homo sapiens, UniProt Q9HB15, R11A/R12A/R14A/R15A/R16A/Y292A); experiment: Inside-out excised patch recordings, oocytes, THIK-2* Y292A; format: cell-based
T1 construct: expressed in transfected cells; host or cells: Xenopus oocytes (mRNA injection)
T1 sequence (Q9HB15 1-430 R11A/R12A/R14A/R15A/R16A/Y292A): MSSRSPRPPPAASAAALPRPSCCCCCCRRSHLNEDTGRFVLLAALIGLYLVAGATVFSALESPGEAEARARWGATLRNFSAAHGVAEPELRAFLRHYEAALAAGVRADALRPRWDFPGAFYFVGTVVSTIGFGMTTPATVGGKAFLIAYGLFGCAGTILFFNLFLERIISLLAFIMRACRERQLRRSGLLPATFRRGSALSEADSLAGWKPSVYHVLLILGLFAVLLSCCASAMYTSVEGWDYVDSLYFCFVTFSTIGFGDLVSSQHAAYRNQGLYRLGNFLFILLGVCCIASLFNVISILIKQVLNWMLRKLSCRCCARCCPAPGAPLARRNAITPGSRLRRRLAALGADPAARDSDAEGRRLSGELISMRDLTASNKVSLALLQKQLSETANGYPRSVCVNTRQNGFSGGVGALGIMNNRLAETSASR
Text: Human K2P13.1 THIK-1 (GenBank accession number: NM_022054) and human K2P12.1 THIK-2 (NM_022055.1) were used in this study. For functional expression studies, the respective K^+ channel subtype coding sequences were subcloned into the oocyte expression vector pSGEM or the dual-purpose expression vector pFAW[41] and verified by sequencing. All mutant channels were obtained by site-directed mutagenesis and verified by sequencing. To increase surface expression and macroscopic currents, measurements of THIK-2 channels used a mutated ER retention motif, (R11A R12A R14A R15A R16A; THIK-2*)[20]. Vector DNA was linearized with NheI or MluI, and mRNA was synthesized in vitro using the SP6 or T7 AmpliCap Max High Yield Message Maker Kit (Cellscript, USA) or HiScribe T7 ARCA mRNA Kit (New England Biolabs).
Two-electrode voltage–clamp (TEVC) studies were performed in Xenopus oocytes. All animal use conformed to the Guide for the Care and Use of Laboratory Animals (NIH Publication 85–23), and all experiments using Xenopus toads were approved by the local ethics panels. Oocytes were stored at 17 °C in ND96 recording solution composed of (in mM): 96 NaCl, 2 KCl, 1.8 CaCl2, 1 MgCl2, 5 HEPES (pH 7.5 adjusted with NaOH and HCl), supplemented with Na-pyruvate (275 mg L^–1), theophylline (90 mg L^–1) and gentamicin (50 mg L^–1). Oocytes were injected with 1 ng mRNA for WT or mutant channels, and were incubated for 24–48 h at 17 °C. Two-electrode voltage clamp recordings were then performed as previously described[42],[43]. For macroscopic patch–clamp measurements, oocytes were obtained as described above incubated at 17 °C in a solution containing (mM): 54 NaCl, 30 KCl, 2.4 NaHCO3, 0.82 MgSO4 ×7 H2O, 0.41 CaCl2, 0.33 Ca(NO3)2 ×4 H2O and 7.5 TRIS (pH 7.4 adjusted with NaOH and HCl) for 1–4 days before use. Excised patch recordings in inside-out configuration conditions were performed at room temperature. Patch pipettes were made from thick-walled borosilicate glass GB 200TF-8P (Science Products), had resistances of 0.2–0.5 MΩ (tip diameter, 10–25 µm) and filled with a pipette solution (in mM): 120 KCl, 10 HEPES and 3.6 CaCl2 (pH 7.4 adjusted with KOH and HCl). Intracellular bath solutions and compounds were applied to the cytoplasmic side of excised patches for the various K^+ channels through a gravity flow multi-barrel pipette system. The intracellular solution had the following composition (in mM): 120 KCl, 10 HEPES, 2 EGTA and 1 pyrophosphate (pH adjusted with KOH and HCl). Currents were recorded with an EPC10 amplifier (HEKA Electronics) and sampled at 10 kHz or higher, with filtering set to 3 kHz (–3 dB) or higher, as appropriate for sampling rate. For measurements of GPCR activation, whole-cell currents were recorded for THIK-1 in transiently transfected HEK-293 cells. Cells were stimulated by a ramp protocol between −100 and +60 mV (holding potential, −80 mV). The pipette solution was composed of (in mM): 140 KCl, 2 MgCl2, 1 CaCl2, 2.5 EGTA and 10 HEPES (pH 7.3 adjusted with KOH and HCl). The extracellular bath solution had the following composition (in mM): 135 NaCl, 5 KCl, 2 MgCl2, 2 CaCl2, 10 glucose and 10 HEPES pH (pH 7.3 adjusted with NaOH and HCl). Oxotremorine M (Oxo-M) was added to extracellular bath solution to obtain the final concentration. Single-channel currents were recorded with an Axopatch 200B amplifier through a Digidata 1440A digitizer (Molecular Devices). Data were filtered at 2 kHz and recorded at a 200-kHz sampling rate with the program Clampex (Molecular Devices). Pipette solution and bath solution for cell-attached recordings contained (in mM): 140 KCl, 2 MgCl2, 1 CaCl2 and 10 HEPES (pH 7.4 adjusted with KOH and HCl). For inside-out recordings, the bath solution contained (in mM): 140 KCl, 2 MgCl2, 1 CaCl2 and 10 HEPES (pH 7.2 adjusted with KOH and HCl). All experiments were conducted at room temperature. […]

THIK-1 F142A = molecular target: T2, THIK-1 F142A (Homo sapiens, UniProt Q9HB14, F142A); experiment: Inside-out excised patch recordings, oocytes, THIK-1 F142A mutant; format: cell-based; details: read-out: TPenA IC50
T2 construct: expressed in transfected cells; host or cells: Xenopus oocytes (mRNA injection)
T2 sequence (Q9HB14 whole entry F142A): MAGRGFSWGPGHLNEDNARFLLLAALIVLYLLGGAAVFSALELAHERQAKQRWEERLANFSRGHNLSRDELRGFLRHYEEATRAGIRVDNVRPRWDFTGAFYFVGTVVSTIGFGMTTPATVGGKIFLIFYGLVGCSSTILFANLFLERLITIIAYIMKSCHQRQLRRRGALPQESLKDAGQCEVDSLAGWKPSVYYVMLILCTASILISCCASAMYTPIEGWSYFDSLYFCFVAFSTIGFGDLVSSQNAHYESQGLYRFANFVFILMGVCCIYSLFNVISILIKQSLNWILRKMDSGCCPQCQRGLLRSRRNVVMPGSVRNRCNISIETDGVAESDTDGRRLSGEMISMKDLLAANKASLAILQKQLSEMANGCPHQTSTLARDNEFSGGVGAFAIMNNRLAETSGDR
Text: Supplement 41594_2025_1497_MOESM2_ESM.xlsx, sheet "ExtData_Fig_S2c" | column: Normalized currents

## CCCCC[N+](CCCCC)(CCCCC)CCCCC [TPenA, tetrapentylammonium]
THIK-2*-Y292A; 0.1 µM TPenA
  Normalized currents: 1.00
THIK-2*-Y292A; 1 µM TPenA
  Normalized currents: 0.93
THIK-2*-Y292A; 10 µM TPenA
  Normalized currents: 0.74
THIK-2*-Y292A; 100 µM TPenA
  Normalized currents: 0.42
THIK-2*-Y292A; 1000 µM TPenA
  Normalized currents: 0.09
THIK-2*-Y292A; 5000 µM TPenA
  Normalized currents: 0.07
THIK-2*-Y292A; individual recordings
  τ of 1 mM TPenA block: 0.090 s and 0.080 s and 0.060 s and 0.150 s and 0.070 s
  τ of 1 mM TPenA release: 0.680 s and 0.860 s and 0.410 s and 0.480 s and 1.100 s and 0.400 s
THIK-2*-Y292A; mean
  τ of 1 mM TPenA block: 0.09 s
  τ of 1 mM TPenA release: 0.66 s
THIK-1 F142A; individual recordings
  IC50: 239 µM and 187 µM and 498 µM and 367 µM
THIK-1 F142A; mean
  IC50: 323 µM
